Data from paper PMC5218480 (PLoS ONE, 2017).

Tested on: MV-4-11 cells
Assay: Gene expression microarray analysis (Affymetrix PrimeView) and GSEA
Assay type: cell-based, human
Design: RFU PODN (11730768_x_at) / Fold change /veh PODN (11730768_x_at) / RFU LINC00158 (11744669_a_at) / Fold change /veh LINC00158 (11744669_a_at) / RFU DUSP10 (11751237_a_at) / Fold change /veh DUSP10 (11751237_a_at) / RFU ID3 (11757404_x_at) / Fold change /veh ID3 (11757404_x_at) / RFU PLEKHG5 (11737974_s_at) / Fold change /veh PLEKHG5 (11737974_s_at) / RFU LRRC4B (11730491_at) / Fold change /veh LRRC4B (11730491_at) / RFU GIMAP4 (11747438_a_at) / Fold change /veh GIMAP4 (11747438_a_at) / RFU KRT8 (11758183_x_at) / Fold change /veh KRT8 (11758183_x_at) / RFU CNN1 (11734310_a_at) / Fold change /veh CNN1 (11734310_a_at) / RFU VPS37D (11726825_at) / Fold change /veh VPS37D (11726825_at) / RFU C10orf10 (11716522_x_at) / Fold change /veh C10orf10 (11716522_x_at) / RFU KIR2DL2 /// KIR2DL4 /// KIR2DL5A /// KIR2DL5B /// KIR2DS1 /// KIR2DS2 /// KIR2DS3 /// KIR2DS4 /// KIR3DL3 /// KIR3DL3 /// KIR3DS1 (11738374_at) / Fold change /veh KIR2DL2 /// KIR2DL4 /// KIR2DL5A /// KIR2DL5B /// KIR2DS1 /// KIR2DS2 /// KIR2DS3 /// KIR2DS4 /// KIR3DL3 /// KIR3DL3 /// KIR3DS1 (11738374_at) / RFU C1QL1 (11718748_at) / Fold change /veh C1QL1 (11718748_at) / RFU TMPRSS4 (11747572_a_at) / Fold change /veh TMPRSS4 (11747572_a_at) / RFU HAMP (11756126_x_at) / Fold change /veh HAMP (11756126_x_at) / RFU RNFT2 (11725882_a_at) / Fold change /veh RNFT2 (11725882_a_at) / RFU NR4A2 (11747474_a_at) / Fold change /veh NR4A2 (11747474_a_at) / RFU ABCC12 (11746883_a_at) / Fold change /veh ABCC12 (11746883_a_at) / RFU TMEM136 (11760407_x_at) / Fold change /veh TMEM136 (11760407_x_at) / RFU CLDN22 /// WWC2 (11732394_at) / Fold change /veh CLDN22 /// WWC2 (11732394_at) / RFU HLA-DPB1 (11760878_x_at) / Fold change /veh HLA-DPB1 (11760878_x_at) / RFU SPINT1 (11716480_a_at) / Fold change /veh SPINT1 (11716480_a_at) / RFU GAP43 (11754022_s_at) / Fold change /veh GAP43 (11754022_s_at) / RFU A4GNT (11735810_at) / Fold change /veh A4GNT (11735810_at) / RFU PRB3 (11715151_x_at) / Fold change /veh PRB3 (11715151_x_at) / RFU TUBB4B (11761932_at) / Fold change /veh TUBB4B (11761932_at) / RFU CAPN14 (11732068_a_at) / Fold change /veh CAPN14 (11732068_a_at) / RFU TMCC2 (11721928_a_at) / Fold change /veh TMCC2 (11721928_a_at) / RFU IRGQ (11745062_a_at) / Fold change /veh IRGQ (11745062_a_at) / RFU FAM174B (11720279_a_at) / Fold change /veh FAM174B (11720279_a_at) / RFU TMPRSS4 (11748680_a_at) / Fold change /veh TMPRSS4 (11748680_a_at) / RFU FAM212B (11763350_a_at) / Fold change /veh FAM212B (11763350_a_at) / RFU PLEKHG5 (11743358_a_at) / Fold change /veh PLEKHG5 (11743358_a_at) / RFU ZSCAN30 (11745921_a_at) / Fold change /veh ZSCAN30 (11745921_a_at) / RFU CMKLR1 (11741424_a_at) / Fold change /veh CMKLR1 (11741424_a_at) / RFU LOC101060620 /// MAPK8IP1 (11723275_at) / Fold change /veh LOC101060620 /// MAPK8IP1 (11723275_at) / RFU SPTSSB (11747773_x_at) / Fold change /veh SPTSSB (11747773_x_at) / RFU PRSS12 (11739890_at) / Fold change /veh PRSS12 (11739890_at) / RFU BIN1 (11741810_x_at) / Fold change /veh BIN1 (11741810_x_at) / RFU WNT11 (11732464_a_at) / Fold change /veh WNT11 (11732464_a_at) / RFU C10orf10 (11716521_a_at) / Fold change /veh C10orf10 (11716521_a_at) / RFU C5orf56 (11738089_at) / Fold change /veh C5orf56 (11738089_at) / RFU CYB561 (11721691_x_at) / Fold change /veh CYB561 (11721691_x_at) / RFU ANKRD19P (11752326_a_at) / Fold change /veh ANKRD19P (11752326_a_at) / RFU OR2T12 /// OR2T33 /// OR2T8 (11738714_s_at) / Fold change /veh OR2T12 /// OR2T33 /// OR2T8 (11738714_s_at) / RFU VCAN (11748164_a_at) / Fold change /veh VCAN (11748164_a_at) / RFU JSRP1 (11732532_at) / Fold change /veh JSRP1 (11732532_at) / RFU KRTAP10-11 (11738290_x_at) / Fold change /veh KRTAP10-11 (11738290_x_at) / RFU MYO3A (11730013_a_at) / Fold change /veh MYO3A (11730013_a_at) / RFU EBF3 (11725865_a_at) / Fold change /veh EBF3 (11725865_a_at) / RFU CAMK2N1 (11719241_x_at) / Fold change /veh CAMK2N1 (11719241_x_at) / RFU C5orf56 (11738088_a_at) / Fold change /veh C5orf56 (11738088_a_at) / RFU OLFML3 (11715873_a_at) / Fold change /veh OLFML3 (11715873_a_at) / RFU LOC100653217 /// NTM (11731650_a_at) / Fold change /veh LOC100653217 /// NTM (11731650_a_at) / RFU MAPK11 (11762145_a_at) / Fold change /veh MAPK11 (11762145_a_at) / RFU FIZ1 (11724087_x_at) / Fold change /veh FIZ1 (11724087_x_at) / RFU OASL (11726364_x_at) / Fold change /veh OASL (11726364_x_at) / RFU SOX15 (11748057_x_at) / Fold change /veh SOX15 (11748057_x_at) / RFU CD79A (11719716_a_at) / Fold change /veh CD79A (11719716_a_at) / RFU HIST1H1D (11736915_at) / Fold change /veh HIST1H1D (11736915_at) / RFU CASKIN2 (11723855_a_at) / Fold change /veh CASKIN2 (11723855_a_at) / RFU LOC730098 (11760151_x_at) / Fold change /veh LOC730098 (11760151_x_at) / RFU OR4N2 (11742367_at) / Fold change /veh OR4N2 (11742367_at) / RFU PRRT2 (11749266_a_at) / Fold change /veh PRRT2 (11749266_a_at) / RFU SNX32 (11753110_a_at) / Fold change /veh SNX32 (11753110_a_at) / RFU CDHR5 (11726645_a_at) / Fold change /veh CDHR5 (11726645_a_at) / RFU RCAN1 (11760418_a_at) / Fold change /veh RCAN1 (11760418_a_at) / RFU FAM167A (11723789_a_at) / Fold change /veh FAM167A (11723789_a_at) / RFU FAM26E (11764081_at) / Fold change /veh FAM26E (11764081_at) / RFU ISYNA1 (11749810_s_at) / Fold change /veh ISYNA1 (11749810_s_at) / RFU ACY1 (11761880_at) / Fold change /veh ACY1 (11761880_at) / RFU 11764098_at / Fold change /veh 11764098_at / RFU SAMD14 (11745864_x_at) / Fold change /veh SAMD14 (11745864_x_at) / RFU NPB (11741838_a_at) / Fold change /veh NPB (11741838_a_at) / RFU TMPRSS6 (11731388_a_at) / Fold change /veh TMPRSS6 (11731388_a_at) / RFU KRTAP10-2 (11738614_at) / Fold change /veh KRTAP10-2 (11738614_at) / RFU ARHGAP8 /// PRR5-ARHGAP8 (11727945_x_at) / Fold change /veh ARHGAP8 /// PRR5-ARHGAP8 (11727945_x_at) / RFU KRTAP5-7 /// NADSYN1 (11734609_at) / Fold change /veh KRTAP5-7 /// NADSYN1 (11734609_at) / RFU RASL12 (11751679_a_at) / Fold change /veh RASL12 (11751679_a_at) / RFU CDKN2B (11736163_a_at) / Fold change /veh CDKN2B (11736163_a_at) / RFU PRF1 (11729649_at) / Fold change /veh PRF1 (11729649_at) / RFU, ZNF638 /// ZNF638-IT1 / Fold change vs veh, ZNF638 /// ZNF638-IT1 / RFU, PANK3 / Fold change vs veh, PANK3 / RFU, SH3YL1 / Fold change vs veh, SH3YL1 / RFU, ZEB2 / Fold change vs veh, ZEB2 / RFU, NRIP1 / Fold change vs veh, NRIP1 / RFU, PTTG1IP / Fold change vs veh, PTTG1IP / RFU, CAPN2 / Fold change vs veh, CAPN2 / RFU, MED14 / Fold change vs veh, MED14 / RFU, SNORA58 / Fold change vs veh, SNORA58 / RFU, C1orf63 / Fold change vs veh, C1orf63 / RFU, LRRFIP1 / Fold change vs veh, LRRFIP1 / RFU, NDUFAF7 / Fold change vs veh, NDUFAF7 / RFU, SLC12A2 / Fold change vs veh, SLC12A2 / RFU, IBTK / Fold change vs veh, IBTK / RFU, ESF1 / Fold change vs veh, ESF1 / Fold change vs veh, TMEM50B / RFU, TAOK1 / Fold change vs veh, TAOK1 / RFU, ACBD3 / Fold change vs veh, ACBD3 / RFU, TMA16 / Fold change vs veh, TMA16 / RFU, RWDD3 / Fold change vs veh, RWDD3 / RFU, BCAT1 / Fold change vs veh, BCAT1 / RFU, EDEM3 / Fold change vs veh, EDEM3 / RFU, TMEM33 / Fold change vs veh, TMEM33 / RFU, WDR75 / Fold change vs veh, WDR75 / RFU, AHCTF1 / Fold change vs veh, AHCTF1 / RFU, TFRC / Fold change vs veh, TFRC / RFU, ZDHHC17 / Fold change vs veh, ZDHHC17 / RFU, NOM1 / Fold change vs veh, NOM1 / RFU, ARL8B / Fold change vs veh, ARL8B / RFU, ZBTB11 / Fold change vs veh, ZBTB11 / RFU, TAMM41 / Fold change vs veh, TAMM41 / RFU, KIAA1704 /// LOC100996395 / Fold change vs veh, KIAA1704 /// LOC100996395 / RFU, ING1 / Fold change vs veh, ING1 / RFU, TRMT61B / Fold change vs veh, TRMT61B / RFU, FUBP3 / Fold change vs veh, FUBP3 / RFU, TP53 / Fold change vs veh, TP53 / RFU, TNKS2 / Fold change vs veh, TNKS2 / RFU, ZFP14 / Fold change vs veh, ZFP14 / RFU, ACTR2 / Fold change vs veh, ACTR2 / RFU, PPP3R1 / Fold change vs veh, PPP3R1 / RFU, PIK3R1 / Fold change vs veh, PIK3R1 / RFU, HNRNPA1 / Fold change vs veh, HNRNPA1 / RFU, RNF170 / Fold change vs veh, RNF170 / RFU, ZNF28 / Fold change vs veh, ZNF28 / RFU, RNGTT / Fold change vs veh, RNGTT / RFU, OGT / Fold change vs veh, OGT / RFU, BRD1 / Fold change vs veh, BRD1 / RFU, MARS / Fold change vs veh, MARS / RFU, ZNF655 / Fold change vs veh, ZNF655 / RFU, FAHD1 / Fold change vs veh, FAHD1 / RFU, BDP1 / Fold change vs veh, BDP1 / RFU, LRRCC1 / Fold change vs veh, LRRCC1 / RFU, ARID1A / Fold change vs veh, ARID1A / RFU, ZNF146 / Fold change vs veh, ZNF146 / RFU, ZNF330 / Fold change vs veh, ZNF330 / RFU, GPN3 / Fold change vs veh, GPN3 / RFU, C9orf123 / Fold change vs veh, C9orf123 / RFU, N4BP2L2 / Fold change vs veh, N4BP2L2 / RFU, ARFIP1 / Fold change vs veh, ARFIP1 / RFU, FAM179B / Fold change vs veh, FAM179B / RFU, BCL10 / Fold change vs veh, BCL10 / RFU, UHRF1BP1L / Fold change vs veh, UHRF1BP1L / RFU, BET1 / Fold change vs veh, BET1 / RFU, CNOT2 / Fold change vs veh, CNOT2 / RFU, ZNF268 / Fold change vs veh, ZNF268 / Fold change vs veh, ZNF507 / RFU, DGCR2 / Fold change vs veh, DGCR2 / RFU, WDSUB1 / Fold change vs veh, WDSUB1 / Fold change vs veh, HSP90B1 /// MIR3652 / RFU, ADSS / Fold change vs veh, ADSS / RFU, GK / Fold change vs veh, GK / RFU, ZNF148 / Fold change vs veh, ZNF148 / RFU, TAF9 / Fold change vs veh, TAF9 / RFU, SLC1A5 / Fold change vs veh, SLC1A5 / RFU, SLMO2 / Fold change vs veh, SLMO2 / RFU, ABCC4 / Fold change vs veh, ABCC4 / RFU, LOC101060439 /// RAP1B / Fold change vs veh, LOC101060439 /// RAP1B / RFU, RFX7 / Fold change vs veh, RFX7 / RFU, GTPBP10 / Fold change vs veh, GTPBP10 / RFU, CNEP1R1 / Fold change vs veh, CNEP1R1 / RFU, BIVM-ERCC5 /// ERCC5 / Fold change vs veh, BIVM-ERCC5 /// ERCC5 / RFU, ILF3 / Fold change vs veh, ILF3 / RFU 11762660_at / Fold change /veh 11762660_at / RFU VCAN (11757783_s_at) / Fold change /veh VCAN (11757783_s_at) / RFU DDX43 (11728927_at) / Fold change /veh DDX43 (11728927_at) / RFU KRT8 (11758188_x_at) / Fold change /veh KRT8 (11758188_x_at) / RFU NKD1 (11759106_at) / Fold change /veh NKD1 (11759106_at) / RFU SRD5A1 (11742802_a_at) / Fold change /veh SRD5A1 (11742802_a_at) / RFU TPSAB1 /// TPSB2 (11721975_s_at) / Fold change /veh TPSAB1 /// TPSB2 (11721975_s_at) / RFU GSTM3 (11746129_a_at) / Fold change /veh GSTM3 (11746129_a_at) / RFU IL23R (11737362_x_at) / Fold change /veh IL23R (11737362_x_at) / RFU TMEM51 (11727254_a_at) / Fold change /veh TMEM51 (11727254_a_at) / RFU PIWIL2 (11732686_x_at) / Fold change /veh PIWIL2 (11732686_x_at) / RFU ORM1 (11744905_x_at) / Fold change /veh ORM1 (11744905_x_at) / RFU CCDC152 (11743942_at) / Fold change /veh CCDC152 (11743942_at) / RFU ECM1 (11717891_a_at) / Fold change /veh ECM1 (11717891_a_at) / RFU IL23R (11748794_a_at) / Fold change /veh IL23R (11748794_a_at) / RFU TNFAIP8L3 (11732012_x_at) / Fold change /veh TNFAIP8L3 (11732012_x_at) / RFU MBOAT4 (11741988_at) / Fold change /veh MBOAT4 (11741988_at) / RFU 11764193_at / Fold change /veh 11764193_at / RFU TMEM53 (11763286_at) / Fold change /veh TMEM53 (11763286_at) / RFU MAGEB2 (11727129_at) / Fold change /veh MAGEB2 (11727129_at) / RFU TMEM200A (11744735_a_at) / Fold change /veh TMEM200A (11744735_a_at) / RFU CCDC152 (11751479_a_at) / Fold change /veh CCDC152 (11751479_a_at) / RFU FAM211A (11726209_a_at) / Fold change /veh FAM211A (11726209_a_at) / RFU RGS16 (11746705_a_at) / Fold change /veh RGS16 (11746705_a_at) / RFU VCAN (11755009_s_at) / Fold change /veh VCAN (11755009_s_at) / RFU RHOB (11743442_s_at) / Fold change /veh RHOB (11743442_s_at) / RFU RGS16 (11720943_a_at) / Fold change /veh RGS16 (11720943_a_at) / RFU RGS16 (11720944_at) / Fold change /veh RGS16 (11720944_at) / RFU, VPS4B / Fold change vs veh, VPS4B / RFU, CREB1 / Fold change vs veh, CREB1 / RFU, DNAJC13 / Fold change vs veh, DNAJC13 / RFU, GNAQ / Fold change vs veh, GNAQ / RFU, CDK5R1 / Fold change vs veh, CDK5R1 / RFU, ZRANB3 / Fold change vs veh, ZRANB3 / RFU, CUL4A / Fold change vs veh, CUL4A / RFU, CCNY / Fold change vs veh, CCNY / RFU, UFL1 / Fold change vs veh, UFL1 / RFU, COG3 / Fold change vs veh, COG3 / RFU, DIAPH2 / Fold change vs veh, DIAPH2 / RFU, SKA2 / Fold change vs veh, SKA2 / RFU, AFF3 / Fold change vs veh, AFF3 / RFU, LMF1 / Fold change vs veh, LMF1 / RFU, IPO11 / Fold change vs veh, IPO11 / RFU, DFFB / Fold change vs veh, DFFB / RFU, FOXP1 / Fold change vs veh, FOXP1 / RFU, CARD8 / Fold change vs veh, CARD8 / RFU, STRN3 / Fold change vs veh, STRN3 / RFU, ADK / Fold change vs veh, ADK / RFU, RASSF2 / Fold change vs veh, RASSF2 / RFU, WIPF1 / Fold change vs veh, WIPF1 / RFU, LARP1B / Fold change vs veh, LARP1B / RFU, RASA1 / Fold change vs veh, RASA1 / RFU, RB1 / Fold change vs veh, RB1 / RFU, PPFIA1 / Fold change vs veh, PPFIA1 / RFU, MAT2A / Fold change vs veh, MAT2A / RFU, CCT5 / Fold change vs veh, CCT5 / RFU, WDR92 / Fold change vs veh, WDR92 / RFU, CUX1 / Fold change vs veh, CUX1 / RFU, TTC7A / Fold change vs veh, TTC7A / RFU, TMEM135 / Fold change vs veh, TMEM135 / RFU, DEPTOR / Fold change vs veh, DEPTOR / RFU, CPM / Fold change vs veh, CPM / RFU, DNAJB6 / Fold change vs veh, DNAJB6 / RFU, CACNA2D3 / Fold change vs veh, CACNA2D3 / RFU, DTX4 / Fold change vs veh, DTX4 / RFU, TFCP2 / Fold change vs veh, TFCP2 / RFU, GMCL1 /// GMCL1P1 / Fold change vs veh, GMCL1 /// GMCL1P1 / RFU, AEBP2 / Fold change vs veh, AEBP2 / RFU, SNHG1 /// SNORD22 /// SNORD25 /// SNORD26 /// SNORD27 /// SNORD28 /// SNORD29 /// SNORD31 / Fold change vs veh, SNHG1 /// SNORD22 /// SNORD25 /// SNORD26 /// SNORD27 /// SNORD28 /// SNORD29 /// SNORD31 / Fold change (Aza/veh), C12orf56 (ProbeSet 11735607_a_at) / Fold change (ACY-1035/veh), C12orf56 (ProbeSet 11735607_a_at) / Fold change (Aza/veh), FGFR1OP (ProbeSet 11751329_s_at) / Fold change (ACY-1035/veh), FGFR1OP (ProbeSet 11751329_s_at) / Fold change (Aza/veh), VPS36 (ProbeSet 11739960_a_at) / Fold change (ACY-1035/veh), VPS36 (ProbeSet 11739960_a_at) / RFU SYPL1 (11715823_x_at) / Fold change /veh SYPL1 (11715823_x_at) / RFU IGFBP7 (11715501_s_at) / Fold change /veh IGFBP7 (11715501_s_at) / RFU REEP3 (11722064_at) / Fold change /veh REEP3 (11722064_at) / RFU IGLL1 (11728026_x_at) / Fold change /veh IGLL1 (11728026_x_at): dose or concentration left out as unconfirmed
Conditions: MV-4-11 cells, 48 hours

## Nc1ccc(-c2cccs2)cc1NC(=O)c1ccc2c(c1)cc(C1CC1)n2CCN1CCOCC1 [ACY-1035]
  Fold change /veh SAMD14 (11745864_x_at): 1.01
